Data: US8222260B2, “Substituted 6-anilinopurine derivatives as inhibitors of cytokinin oxidase/dehydrogenase and preparations containing these derivatives” (Univerzita Palackego V Olomouci, priority 2007, dated 2012)

Columns and labels:
[1] = tested on: Salmonella typhimurium TA98 and TA100; assay: Ames test; assay type: cell-based; conditions: 2.5 to 5000 μg/plate
Protocol: Amest test was used in order to exclude mutagenic effect of 2-chloro-6-(4-hydroxyanilino)purine. Histidin auxotrophs of Salmonella typhimurium TA98 and TA100 were used as indicator strains and the test was carried out according to standard protocols (Ames et al., Mutation Research, 31, 347-364 (1975); Maron et al., Mutation Research, 113, 173-215 (1983)). Tested concentrations were as follows: 2.5, 5.0, 15, 50, 500, 1500, a 5000 μg/plate. The compound was not mutagenic even in the concentrations exceeding its solubility limit in the culture medium.

[2] = tested on: Rat C6 glioma (ATCC No. CCL107); assay: Anti-inflammatory activity: isoproterenol-induced cAMP synthesis (ELISA); assay type: cell-based; conditions: cAMP after 30 min, induced by (−)-isoproterenol
Protocol: Anti-inflammatory activity of several of the substituted 6-anilinopurine derivatives of this invention was determined; kinetin was also evaluated as a control. Rat C6 glioma (ATCC No. CCL107) was cultivated in monolayer in serum-free chemically defined medium containing Ham's F10/minimal essential medium (1:1 v/v), 2 mM L-glutamine, 1% (v/v) minimal essential medium vitamins (100×), 1% (v/v) minimal essential medium nonessential amino acids (100×), 100 U/ml penicillin, […], and 30 nM sodium selenite. Incubation was performed at 37° C. in a 100% humidified atmosphere. The assays were performed in the logarithmic growth phase at a density of 2.5×10^5 cells/cm^2. Intracellular cAMP synthesis was induced by addition of 5 mM (−)-isoproterenol; various amounts of test compounds were added at the same time as the (−)-isoproterenol. After 30 min incubation, the cellular amount of cAMP was determined using ELISA (cAMP-enzyme immunoassay kit from Amersham). The I50 values were determined from the dose-response curve in duplicate.

[3] = tested on: Human diploid fibroblasts HCA; assay: Anti-aging activity: senescence-associated beta-galactosidase in human fibroblasts; assay type: cell-based
Protocol: In this example, effects of the compounds of this invention on the activity of a senescence biomarker senescence-associated β-galactosidase was studied. Human diploid fibroblasts HCA of various passage levels were used for this purpose. The tested compounds were added to the medium at each passage. After the incubation period, cells were washed with PBS and fixed with 2% formaldehyde and 0.2% glutaraldehyde in PBS. After another wash with PBS, they were incubated with the staining solution comprising potassium ferricyanide (5 mM), potassium ferrocyanide (5 mM), MgCl2 (2 mM), X-gal (5-bromo-4-chloro-3-indolyl-β-D-galactopyranoside) (1 mg/ml), in citric/phosphate buffer (pH 6.0) at 37° C. (without CO2) for at least 1 hour. Following the incubation period, the numbers of cells expressing senescence-associated β-galactosidase (blue cells) were counted using light microscope.

B16-F0 = assay: Calcein AM cytotoxicity assay; assay type: cell-based, Mouse; conditions: 72 hours
[4] = tested on: erytroid leukemia cell line K-562; assay: Calcein AM cytotoxicity assay; assay type: cell-based, human; conditions: 72 hours
Text: (§1) Absence of toxic effects against mammalian (especially human) cell lines in a wide concentration range is one of the requirements on compounds intended for use in agriculture and medicine. Because toxic compounds negatively influence metabolic processes in cells, many standard cytotoxicity assays are based on measurement of metabolisation rate of various artificial substrates. Resulting product is then quantified e.g. by means of spectrometry. The assays can be easily modified for use in 96-well plates. For evaluation of cytotoxic effect of compounds of this invention, a microtiter assay based on quantification of metabolisation of Calcein AM was used. The assay is widely used in drug screening programs and in chemosensitivity testing. In live cells, Calcein AM is enzymatically hydrolysed and accumulation of resulting calcein is manifested by green fluorescence.
(§2) Following human cell lines were used for routine screening of the compounds: T-lymphoblastic leukemia cell line CEM, promyelocytic leukemia cell line HL-60, erytroid leukemia cell line K-562, breast carcinoma cell line MCF-7, osteosarcoma cell line HOS and melanoma cell line G-361. Mouse cell lines B16-F10 (melanoma) and NIH-3T3 (fibroblasts) were used as well. The cells were maintained in Nunc/Corning 80 cm^2 plastic tissue culture flasks and cultured in cell culture medium (DMEM with 5 g/l glucose, 2 mM glutamine, 100 U/ml penicillin, 100 μg/ml streptomycin, 10% fetal calf serum and sodium bicarbonate).
(§3) The cell suspensions were prepared and diluted according to the particular cell type and the expected target cell density (2.500-30.000 cells per well based on cell growth characteristics) and pippetted (80 μl) into 96-well plates. Inoculates were allowed a pre-incubation period of 24 hours at 37° C. and 5% CO2 for stabilisation. Tested compound was added in total volume of 20 μl of water at time zero. Usually, test compound was evaluated at six 3-fold dilutions. In routine testing, the highest concentration tested was 166.6 μM. All drug concentrations were tested in triplicates. Incubations of cells with the test compounds lasted for 72 hours at 37° C., in 5% CO2 atmosphere and 100% humidity. At the end of incubation period Calcein AM in PBS was added into final concentration of 1 μg/ml. After another 1 hour of incubation fluorescence (FD) was measured with the Labsystem FIA Reader Fluoroscan Ascent (UK). Growth inhibition (GI) was estimated using the following equitation: GI=(mean FDdrug exposed wells−mean FDblank)/(mean FDcontrol wells−mean FDblank)×100%. The GI50 value, the drug concentration causing 50% reduction of Calcein AM conversion, was calculated from the obtained dose response curves.

[5] = tested on: osteosarcoma cell line HOS; assay: Calcein AM cytotoxicity assay; assay type: cell-based, human; conditions: 72 hours
Text: as §1, §2, §3

melanoma cell line G-361 = assay: Calcein AM cytotoxicity assay; assay type: cell-based, human; conditions: 72 hours
Text: as §1, §2, §3

NIH-3T3 (fibroblasts) = assay: Calcein AM cytotoxicity assay; assay type: cell-based, Mouse; conditions: 72 hours
Text: as §1
(§4) Mouse cell lines B16-F10 (melanoma) and NIH-3T3 (fibroblasts) were used as well. The cells were maintained in Nunc/Corning 80 cm^2 plastic tissue culture flasks and cultured in cell culture medium (DMEM with 5 g/l glucose, 2 mM glutamine, 100 U/ml penicillin, 100 μg/ml streptomycin, 10% fetal calf serum and sodium bicarbonate).
as §3, with “In routine testing, the highest concentration tested was 166.6 μM.” left out, “FDblank)×100%.” for “FDblank)×100%. The GI50 value, the drug concentration causing 50% reduction of Calcein AM conversion, was calculated from the obtained dose response curves.”

[6] = tested on: breast carcinoma cell line MCF-7; assay: Calcein AM cytotoxicity assay; assay type: cell-based, human; conditions: 72 hours, read-out: GI50 MCF7
Text: as §1, §4
as §3, with “In routine testing, the highest concentration tested was 166.6 μM.” left out, “FDblank)×100%.” for “FDblank)×100%. The GI50 value, the drug concentration causing 50% reduction of Calcein AM conversion, was calculated from the obtained dose response curves.”

[7] = tested on: promyelocytic leukemia cell line HL-60; assay: Calcein AM cytotoxicity assay; assay type: cell-based, human; conditions: 72 hours, read-out: GI50 HL60
Text: as §1, §4
as §3, with “In routine testing, the highest concentration tested was 166.6 μM.” left out, “FDblank)×100%.” for “FDblank)×100%. The GI50 value, the drug concentration causing 50% reduction of Calcein AM conversion, was calculated from the obtained dose response curves.”

[8] = tested on: T-lymphoblastic leukemia cell line CEM; assay: Calcein AM cytotoxicity assay; assay type: cell-based, human; conditions: 72 hours
Text: as §1, §4
as §3, with “In routine testing, the highest concentration tested was 166.6 μM.” left out, “FDblank)×100%.” for “FDblank)×100%. The GI50 value, the drug concentration causing 50% reduction of Calcein AM conversion, was calculated from the obtained dose response curves.”

| Structure (SMILES) | mutagenic effect [1] | IC50 ([2]; Rattus norvegicus, C6 glioma, 0.5 h, read-out: I50) [µM] | Effect (anti-inflammatory activity) [2] | Senescent Cells (%) HCA passage 25 ([3]; passage 25, cells expressing senescence-associated beta-galactosidase) [%] | Senescent Cells (%) HCA passage 50 ([3]; passage 50, cells expressing senescence-associated beta-galactosidase) [%] | Senescent Cells (%) HCA passage 80 ([3]; passage 80, cells expressing senescence-associated beta-galactosidase) [%] | GI50 (B16-F0) [µM] | GI50 [4] [µM] | GI50 [5] [µM] | GI50 (melanoma cell line G-361) [µM] | GI50 (NIH-3T3 (fibroblasts)) [µM] | GI50 [6] [µM] | GI50 [7] [µM] | GI50 [8] [µM] |
| --- | --- | --- | --- | --- | --- | --- | --- | --- | --- | --- | --- | --- | --- | --- |
| Oc1ccc(Nc2nc(Cl)nc3nc[nH]c23)cc1 [Compound 10, 2-chloro-6-(4-hydroxyanilino)purine] | not mutagenic | 13 | Inhibition | 4 | 6 | 22 |  |  |  |  |  |  |  |  |
| Oc1ccccc1CNc1ncnc2nc[nH]c12 [ortho-topolin, reference compound] |  |  |  |  |  |  | 150 | > 167 | > 167 | 103 | > 167 | > 167 | 78 | 69.2 |
| Oc1cccc(CNc2ncnc3nc[nH]c23)c1 [meta-topolin, reference compound] |  |  |  |  |  |  | 90.6 | 128 | > 167 | > 167 | > 167 | > 167 | 79.2 | 90.1 |
